The text below walks through data of patent US8759522B2, “Inhibitors of protein tyrosine kinase activity” (Methylgene Inc., priority 2008, dated 2014).

The target in one assay is T1, VEGFR2 (KDR) (Homo sapiens, UniProt P35968).
T1 construct: made in house; host or cells: Sf9 cells (Spodoptera frugiperda), baculovirus (Bac-to-Bac)
T1 sequence (P35968 806-1356): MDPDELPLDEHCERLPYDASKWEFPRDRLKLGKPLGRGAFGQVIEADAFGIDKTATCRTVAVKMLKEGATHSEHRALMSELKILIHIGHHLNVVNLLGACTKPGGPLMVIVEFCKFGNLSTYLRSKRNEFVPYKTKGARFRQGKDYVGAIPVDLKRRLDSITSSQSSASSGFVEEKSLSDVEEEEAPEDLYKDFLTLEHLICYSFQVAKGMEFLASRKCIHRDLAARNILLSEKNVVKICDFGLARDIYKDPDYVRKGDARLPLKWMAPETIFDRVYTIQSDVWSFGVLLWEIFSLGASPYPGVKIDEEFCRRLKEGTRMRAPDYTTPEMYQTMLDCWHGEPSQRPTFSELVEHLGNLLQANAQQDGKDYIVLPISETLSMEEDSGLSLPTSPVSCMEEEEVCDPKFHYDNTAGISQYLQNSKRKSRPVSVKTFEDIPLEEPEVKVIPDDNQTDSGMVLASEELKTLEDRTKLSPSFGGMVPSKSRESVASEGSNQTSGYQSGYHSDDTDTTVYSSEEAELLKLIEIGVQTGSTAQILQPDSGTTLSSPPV
Kind of assay: In vitro receptor tyrosine kinase assay (VEGF receptor KDR), DELFIA. It is filed as biochemical. As to conditions: recombinant GST-VEGFR2 catalytic domain, ATP 0.6 uM, enzyme 5 nM. From the text:
In Vitro Receptor Tyrosine Kinase Assay (VEGF Receptor KDR)
This test measures the ability of compounds to inhibit the enzymatic activity of recombinant human VEGF receptor enzymatic activity.
A 1.6-kb cDNA corresponding to the catalytic domain of VEGFR2 (KDR) (Genbank accession number AF035121 amino acid 806 to 1356) is cloned into the Pst I site of the pDEST20 Gateway vector (Invitrogen) for the production of a GST-tagged version of that enzyme. This constuct is used to generate recombinant baculovirus using the Bac-to-Bac™ system according to the manucfacturer's instructions (Invitrogen).
The GST-VEGFR2806-1356 protein is expressed in Sf9 cells (Spodoptera frugiperda) upon infection with recombinant baculovirus construct. Briefly, Sf9 cells grown in suspension and maintained in serum-free medium (Sf900 II supplemented with gentamycin) at a cell density of about 2×10^6 cells/ml are infected with the above-mentioned viruses at a multiplicity of infection (MOI) of 0.1 during 72 hours at 27° C. with agitation at 120 rpm on a rotary shaker. Infected cells are harvested by centrifugation at 398 g for 15 min. Cell pellets are frozen at −80° C. until purification is performed.
All steps described in cell extraction and purification are performed at 4° C. Frozen Sf9 cell pellets infected with the GST-VEGFR2806-1356 recombinant baculovirus are thawed and gently resuspended in Buffer A (PBS pH 7.3 supplemented with 1 μg/ml pepstatin, 2 μg/ml Aprotinin and leupeptin, 50 μg/ml PMSF, 50 μg/ml TLCK and 10 μM E64 and 0.5 mM DTT) using 3 ml of buffer per gram of cells. Suspension is Dounce homogenized and 1% Triton X-100 is added to the homogenate after which it is centrifuged at 22500 g, 30 min., 4° C. The supernatant (cell extract) is used as starting material for purification of GST-VEGFR2806-1356.
The supernatant is loaded onto a GST-agarose column (Sigma) equilibrated with PBS pH 7.3. Following a four column volume (CV) wash with PBS pH 7.3+1% Triton X-100 and 4 CV wash with buffer B (50 mM Tris pH 8.0, 20% glycerol and 100mM NaCl), bound proteins are step eluted with 5 CV of buffer B supplemented with 5 mM DTT and 15 mM glutathion. GST-VEGFR2806-1356 enriched fractions from this chromatography step are pooled based on U.V. trace i.e. fractions with high O.D.280. Final GST-VEGFR2806-1356 protein preparations concentrations are about 0.7 mg/ml with purity approximating 70%. Purified GST-VEGFR2806-1356 protein stocks are aliquoted and frozen at −80° C. prior to use in enzymatic assay.
Inhibition of VEGFR/KDR is measured in a DELFIA™ assay (Perkin Elmer). The substrate poly(Glu4, Tyr) is immobilized onto black high-binding polystyrene 96-well plates. The coated plates are washed and stored at 4° C. During the assay, the enzyme is pre-incubated with inhibitor and Mg-ATP on ice in polypropylene 96-well plates for 4 minutes, and then transferred to the coated plates. The subsequent kinase reaction takes place at 30° C. for 10-30 minutes. ATP concentrations in the assay are 0.6 uM for VEGFR/KDR (2× the Km). Enzyme concentration is 5 nM. After incubation, the kinase reactions are quenched with EDTA and the plates are washed. Phosphorylated product is detected by incubation with Europium-labeled anti-phosphotyrosine MoAb. After washing the plates, bound MoAb is detected by time-resolved fluorescence in a Gemini SpectraMax reader (Molecular Devices). Compounds are evaluated over a range of concentrations and IC50's (concentration of compounds giving 50% inhibition of enzymatic activity) are determined. In the table, “a” indicates inhibitory activity at a concentration of less than 250 nanomolar; “b” indicates inhibitory activity at a concentration ≧250 but <500 nanomolar, “c” indicates inhibitory activity at ≧500 but <1000 nanomolar; and “d” indicates inhibitory activity ≧1000 nanomolar.
As a reminder, the IC50 is the concentration needed to halve the response being measured. For `COCCNCc1cccc(-c2cc3nccc(Oc4ccc(NC(=O)NC5CC5)cc4F)c3s2)n1`, the IC50 is less than 250 nM.
In the case of `COCCNCc1ccc(-c2cc3nccc(Oc4ccc(NC(=O)Nc5cccc(C(N)=O)c5)cc4F)c3s2)nc1`, the IC50 was less than 250 nM.
As for `COCCNCc1ccc(-c2cc3nccc(Oc4ccc(NC(=O)Nc5cccc(S(C)(=O)=O)c5)cc4F)c3s2)nc1`, the IC50 is less than 250 nM.
The same measure, in the same setting: with `COCCNCc1cnc(-c2cc3nccc(Oc4ccc(NC(=O)Nc5cc(C(F)(F)F)ccc5F)cc4F)c3s2)n1C` the figure was less than 250 nM; with `COCCNCc1cnc(-c2cc3nccc(Oc4ccc(NC(=O)Nc5ccc(OC)cc5)cc4F)c3s2)n1C`, less than 250 nM; with `COCCNCc1cnc(-c2cc3nccc(Oc4ccc(NC(=O)Nc5cccc(C(N)=O)c5)cc4F)c3s2)n1C`, less than 250 nM.
Take `COCCNCc1ccc(-c2cc3nccc(Oc4ccc(NC(=O)C5CC5)cc4F)c3s2)nc1`: the IC50 lay in the range of 250 to 500 nM.
For `COCCNCc1ccc(-c2cc3nccc(Oc4ccc(NC(=O)Nc5cccc(C(=O)OC)c5)cc4F)c3s2)nc1`, the IC50 was less than 250 nM.
Take `CNC(=O)c1cccc(NC(=O)Nc2ccc(Oc3ccnc4cc(-c5ccc(CNCCOC)cn5)sc34)c(F)c2)c1`: the IC50 is less than 250 nM.
In the case of `COCCNCc1ccc(-c2cc3nccc(Oc4ccc(NC(=O)N[C@@H]5CCOC5)cc4F)c3s2)nc1`, the IC50 was no less than 1000 nM.
Same read-out and setting: with `COCCNCc1ccc(-c2cc3nccc(Oc4ccc(NC(=O)CC(=O)NC5CCC5)cc4F)c3s2)nc1` the figure was 250 to 500 nM; with `COCCNCc1ccc(-c2cc3nccc(Oc4ccc(NC(=O)OC5CCCCC5)cc4F)c3s2)nc1`, no less than 1000 nM; with `COCCNCc1ccc(-c2cc3nccc(Oc4ccc(NC(=O)OC5CCC5)cc4F)c3s2)nc1`, less than 250 nM.
The same measure, in the same setting: as for `COCCNCc1ccc(-c2cc3nccc(Oc4ccc(NC(=O)N[C@H]5CCOC5)cc4F)c3s2)nc1`, the figure is 500 to 1000 nM; as for `COCCN(Cc1ccc(-c2cc3nccc(Oc4ccc(NC(=O)Nc5cccc(C(N)=O)c5)cc4F)c3s2)nc1)C(C)=O`, less than 250 nM.
For the compound `COCCOCCOCCOCCN(Cc1ccc(-c2cc3nccc(Oc4ccc(NC(=O)NC5CC5)cc4F)c3s2)nc1)C(C)=O`, the IC50 is less than 250 nM.
Regarding `COCCNCc1ccc(-c2cc3nccc(Oc4ccc(NC(=O)Nc5ccn(C)n5)cc4F)c3s2)nc1`, the IC50 is less than 250 nM.

Another assay has as its system VEGF-dependent Erk phosphorylation in HUVEC cells. The assay can be described thus: VEGF-dependent Erk phosphorylation. It is filed as cell-based. The settings on record: Homo sapiens, 1.5 h compound, VEGF165 150 ng/ml, phospho ERK1/2 Western blot. From the text:
VEGF-Dependent Erk Phosphorylation
HUVEC cells were purchased from Cambrex Bio Science Walkersville, Inc and cultured according to the vendor's instructions. The full-length coding sequence of VEGF165 was cloned using the Gateway Cloning Technology (Invitrogen) for baculovirus expression Sf9 cells. VEGF165 was purified from conditioned media using a NaCl gradient elution from a HiTrap heparin column (GE Healthcare Life Sciences) followed by an imidazole gradient elution from a HiTrap chelating column (GE Healthcare Life Sciences), then buffer stored in PBS supplemented with 0.1% BSA and filter sterilized
Cells were seeded at 8000 cells/well of a 96 wells plate and grown for 48 hours. Cells were then grown overnight in serum and growth factor-free medium and exposed for 1.5 h to compounds dilutions. Following a 15 min incubation in medium, VEGF165 (150 ng/ml) cells were lysed in ice-cold lysis buffer (50 mM HEPES, pH 7.4, 150 mM NaCl, 1.5 mM MgCl2, 1% Triton X-100, 10% glycerol) containing 1 mM 4-(2 aminoethyl)benzenesulfonyl fluoride hydrochloride, 200 μM sodium orthovanadate, 1 mM sodium fluoride, 10 μg/mL leupeptin, 10 μg/mL aprotinin, 1 μg/mL pepstatin and 50 μg/mL Na-p-tosyl-L-lysine chloromethyl ketone hydrochloride and processed as Western blots to detect anti-phospho ERK1/2 (T202/Y204) (Cell Signaling Technologies).
lysates samples from single treatment wells were separated on 5-20% SDS-PAGE gels and immunobloting was performed using Immobilon polyvinylidene difluoride membranes (Amersham) according to the manufacturer's instructions.
A general note: Immunoblotting shows a protein as a band on a membrane.
In turn, `COCCNCc1cccc(-c2cc3nccc(Oc4ccc(NC(=O)NC5CC5)cc4F)c3s2)n1` came in with a half-inhibitory concentration (IC50) of less than 250 nM.
Regarding `COCCNCc1ccc(-c2cc3nccc(Oc4ccc(NC(=O)Nc5cccc(C(N)=O)c5)cc4F)c3s2)nc1`, the IC50 is less than 250 nM.
The same measure, in the same setting: with `COCCNCc1ccc(-c2cc3nccc(Oc4ccc(NC(=O)Nc5cccc(S(C)(=O)=O)c5)cc4F)c3s2)nc1` the figure was less than 250 nM.
The compound `COCCNCc1cnc(-c2cc3nccc(Oc4ccc(NC(=O)Nc5cc(C(F)(F)F)ccc5F)cc4F)c3s2)n1C` came in with an IC50 of less than 250 nM.
Take `COCCNCc1cnc(-c2cc3nccc(Oc4ccc(NC(=O)Nc5ccc(OC)cc5)cc4F)c3s2)n1C`: the IC50 was less than 250 nM.
The compound `COCCNCc1cnc(-c2cc3nccc(Oc4ccc(NC(=O)Nc5cccc(C(N)=O)c5)cc4F)c3s2)n1C` came in with an IC50 of less than 250 nM.
The compound `COCCNCc1ccc(-c2cc3nccc(Oc4ccc(NC(=O)N[C@@H]5CCOC5)cc4F)c3s2)nc1` showed an IC50 of less than 250 nM.
With `COCCNCc1ccc(-c2cc3nccc(Oc4ccc(NC(=O)CC(=O)NC5CCC5)cc4F)c3s2)nc1`, the IC50 is less than 250 nM.
`COCCNCc1ccc(-c2cc3nccc(Oc4ccc(NC(=O)OC5CCCCC5)cc4F)c3s2)nc1` yielded an IC50 of less than 250 nM.
`COCCNCc1ccc(-c2cc3nccc(Oc4ccc(NC(=O)OC5CCC5)cc4F)c3s2)nc1` showed an IC50 of less than 250 nM.
`COCCNCc1ccc(-c2cc3nccc(Oc4ccc(NC(=O)N[C@H]5CCOC5)cc4F)c3s2)nc1` gave an IC50 of less than 250 nM.
`COCCN(Cc1ccc(-c2cc3nccc(Oc4ccc(NC(=O)Nc5cccc(C(N)=O)c5)cc4F)c3s2)nc1)C(C)=O` came in with an IC50 of less than 250 nM.
The same measure, in the same setting: with `COCCOCCOCCOCCN(Cc1ccc(-c2cc3nccc(Oc4ccc(NC(=O)NC5CC5)cc4F)c3s2)nc1)C(C)=O` the figure was less than 250 nM.
Consider `COCCNCc1ccc(-c2cc3nccc(Oc4ccc(NC(=O)Nc5ccn(C)n5)cc4F)c3s2)nc1`, for which the IC50 was less than 250 nM.
